Data taken from PMC8537386, “The Specificity and Broad Multitarget Properties of Ligands for the Free Fatty Acid Receptors FFA3/GPR41 and FFA2/GPR43 and the Related Hydroxycarboxylic Acid Receptor HCA2/GPR109A” (Pharmaceuticals, 2021).
Where two headings read alike, the source gives them in different places.

How the values were obtained:
[1] = molecular target: T1, FFA3/GPR41 (Homo sapiens, UniProt O14843); set-up: method as in PMID 32141297; conditions: described in the literature; cited from earlier work
T1 construct: host or cells: Flp-In-293
T1 sequence (O14843 1-346): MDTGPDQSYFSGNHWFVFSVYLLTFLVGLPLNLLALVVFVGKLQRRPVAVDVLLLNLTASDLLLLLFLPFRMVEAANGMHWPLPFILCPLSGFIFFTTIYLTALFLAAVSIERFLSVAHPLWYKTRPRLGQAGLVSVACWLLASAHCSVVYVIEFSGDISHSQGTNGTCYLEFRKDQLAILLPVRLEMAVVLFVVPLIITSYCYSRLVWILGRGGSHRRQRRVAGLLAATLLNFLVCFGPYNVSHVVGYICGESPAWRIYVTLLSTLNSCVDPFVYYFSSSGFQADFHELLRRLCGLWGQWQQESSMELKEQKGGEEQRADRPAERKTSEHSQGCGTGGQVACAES

[2] = system: MCP-1 mRNA; test: LPS-induced MCP-1 gene expression in THP-1 macrophages (qRT-PCR); assay type: cell-based, human; conditions: 4 h LPS, LPS-treated cells = 100%; for decrease in MCP-1 mRNA: compound 50 µg/mL
Method: (§1) The human THP-1 monocyte cell line was obtained from ATCC (American Type Culture Collection). […] The THP-1 monocytes were stimulated to differentiate into macrophages with phorbol 12-myristate 13-acetate (PMA) (50 ng/mL) for 24 h. The medium was exchanged for PMA-free medium for 48 h before the cells were used for experiments.
(§2) The total RNA was isolated from THP-1 cells using TRIzol reagent, according to the manufacturer’s protocol. First-strand cDNA was synthesized from 2 µg of RNA using oligo(dT) primers with RevertAid H Minus kit (Thermo Fisher Scientific, USA). The qRT-PCR procedure was performed using ABsolute Blue QPCR SYBR Green Master Mix reagent (Thermo Fisher Scientific, USA) with a ViiA7 real-time PCR detection system (Applied Biosystems, USA). The primer pairs that were employed for HCA2/GPR109A were forward 5′-[…]-3′ and reverse 5′-[…]-3′; for FFA2/GPR43 were forward 5′-[…]-3′ and reverse 5′-[…]-3′; for FFA3/GPR41 were forward 5′-[…]-3′ and reverse 5′-[…]-3′; for IL-6 were forward 5′-[…]-3′ and reverse 5′-[…]-3′; for MCP-1 were forward 5′-[…]-3′ and reverse 5′-[…]-3′; for TNF-α were forward 5′-[…]-3′ and reverse 5′-[…]-3′; for RPS29 were forward 5′-[…]-3′ and reverse 5′- […]-3′. The mRNA levels were quantified and normalized to the levels of the reference gene RPS29 using the 2^−ΔΔCt method and presented as relative expression compared to the values for untreated cells.

[3] = system: TNF-α mRNA; test: LPS-induced TNF-α gene expression in THP-1 macrophages (qRT-PCR); assay type: cell-based, human; conditions: 4 h LPS, LPS-treated cells = 100%; for decrease in TNF-α mRNA: compound 50 µg/mL
Method: as §1, §2

[4] = molecular target: T1, FFA3/GPR41; test: forskolin-stimulated cAMP accumulation assay, Flp-In-293 cells stably expressing FFA3/GPR41; assay type: cell-based; conditions: for Emax: read-out: FFA3/GPR41 Emax, maximal inhibition of forskolin-stimulated cAMP (converted)
Method: (§3) All of our synthesized compounds were evaluated in forskolin-stimulated cAMP accumulation assay using Flp-In-293 cells stably expressing human FFA2/GPR43, FFA3/GPR41 or HCA2/GPR109A receptors (Table 1, Table 2 and Table 3; Figure 2).
(§4) Flp-In-293 cells (Invitrogen) were used for the generation of stable FFA3/GPR41 and FFA2/GRP43 cell lines using Flp-In System (Invitrogen). Flp-In-293 cells were cultured in Dulbecco’s modified Eagle medium (DMEM) supplemented with 10% fetal bovine serum (FBS), penicillin (100 U/mL), streptomycin (100 µg/mL), and zeocin (100 µg/mL). The cells were co-transfected with pOG44 (Invitrogen) and pcDNA5/FRT-FFA3 or pcDNA5/FRT-FFA2 using TurboFect (Thermo Fisher Scientific), and stable cell lines were generated according to the manufacturer’s protocol (Invitrogen). After transfection, the cells were cultured under selection pressure due to the presence of hygromycin B (100 µg/mL) in DMEM supplemented with 10% FBS, penicillin, and streptomycin.
(§5) For cAMP assay, the cells were distributed into a 384-well white microplate at a density of 12,000 cells per well and stimulated with the indicated compounds in the presence of 3 μM forskolin for 30 min. […] The cells and the compounds were diluted in 1X phosphate-buffered saline (PBS) supplemented with 0.5 mM of 3-isobutyl-1-methylxanthine. The intracellular cAMP levels were measured using a Lance cAMP kit according to the manufacturer’s instructions. The plates were read on a PerkinElmer Victor 3V multilabel plate reader. The cAMP was quantitated in each sample by comparison to a calibration curve of known cAMP quantities provided in the kit.

[5] = cyclic voltammetry, electrooxidation potential; assay type: physicochemical; conditions: vs. Ag/Ag+; acetonitrile, glassy carbon electrode
Method: Cyclic voltammetry experiments were carried out using a PARSTAT 2273 electrochemical system. A stationary glassy carbon disk electrode (d = 0.8 mm) served as the working electrode, while the counter electrode was a Pt wire. The oxidation potentials were measured relative to an Ag/Ag^+ reference electrode. Acetonitrile was dried over P2O5 and distilled; the distillate was stored over CaH2 and redistilled immediately prior to use. Recrystallized tetrabutylammonium tetrafluoroborate (TBATFB) was used as a supporting electrolyte at 0.1 M concentration.

[6] = system: FFA3/GPR41 mRNA; test: FFA3/GPR41 gene expression in LPS-stimulated THP-1 macrophages (qRT-PCR); assay type: cell-based, human; conditions: 4 h LPS 1 µg/mL; for LPS-stimulated FFA3/GPR41 mRNA level: compound 50 µM, p < 0.05
Method: as §1, §2

[7] = molecular target: T2, FFA2/GPR43 (Homo sapiens, UniProt O15552); test: forskolin-stimulated cAMP accumulation assay, Flp-In-293 cells stably expressing FFA2/GPR43; assay type: cell-based; conditions: for inhibition at 50 µM: 50 µM compound, NA = not active up to 50 µM
T2 construct: host or cells: Flp-In-293
T2 sequence (O15552 1-330): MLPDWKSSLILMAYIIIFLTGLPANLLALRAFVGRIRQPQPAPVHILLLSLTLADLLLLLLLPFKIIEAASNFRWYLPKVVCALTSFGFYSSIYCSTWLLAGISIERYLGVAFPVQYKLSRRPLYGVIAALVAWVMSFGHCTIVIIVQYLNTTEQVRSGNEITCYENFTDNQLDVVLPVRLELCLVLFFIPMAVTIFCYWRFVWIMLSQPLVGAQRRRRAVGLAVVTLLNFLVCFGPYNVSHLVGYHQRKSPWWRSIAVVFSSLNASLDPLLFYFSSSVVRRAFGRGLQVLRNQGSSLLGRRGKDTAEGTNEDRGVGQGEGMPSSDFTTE
Method: as §3, §4, §5

[8] = set-up: method as in PMID 32141297; conditions: calculated with ChemDraw Professional Version 16; cited from earlier work
[9] = system: IL-6 mRNA; test: LPS-induced IL-6 gene expression in THP-1 macrophages (qRT-PCR); assay type: cell-based, human; conditions: 4 h LPS, LPS-treated cells = 100%; for decrease in IL-6 mRNA: compound 50 µg/mL
Method: as §1, §2

[10] = molecular target: T3, HCA2/GPR109A (Homo sapiens, UniProt Q8TDS4); test: forskolin-stimulated cAMP accumulation assay, Flp-In-293 cells stably expressing HCA2/GPR109A; assay type: cell-based; conditions: for Emax / EC50: mean ± SD; for Emax: read-out: HCA2/GPR109A Emax, maximal inhibition of forskolin-stimulated cAMP (converted); for EC50: inhibition of forskolin-stimulated cAMP, read-out: HCA2/GPR109A EC50
T3 construct: expressed in transfected cells; host or cells: Flp-In-293
Method: as §3
Flp-In-293 cells stably expressing human HCA2/GPR109A receptor (laboratory collection) were grown in DMEM medium supplemented with 10% FBS, penicillin, streptomycin, and hygromycin B (100 µg/mL). All cells were cultured at 37 °C in a humidified incubator containing 5% CO2.
as §5

[11] = system: HCA2/GPR109A mRNA; test: HCA2/GPR109A gene expression in LPS-stimulated THP-1 macrophages (qRT-PCR); assay type: cell-based, human; conditions: compound 50 µM; 4 h LPS 1 µg/mL; p < 0.05
Method: as §1, §2

[12] = system: FFA2/GPR43 mRNA; test: FFA2/GPR43 gene expression in LPS-stimulated THP-1 macrophages (qRT-PCR); assay type: cell-based, human; conditions: 4 h LPS 1 µg/mL
Method: as §1, §2

[13] = inhibition of forskolin-stimulated cAMP, absence of propionate, mean ± SD, read-out: FFA3/GPR41 EC50
[14] = presence of 5 µM propionate, read-out: FFA3/GPR41 EC50 in the presence of propionate

T3 sequence (Q8TDS4 whole entry): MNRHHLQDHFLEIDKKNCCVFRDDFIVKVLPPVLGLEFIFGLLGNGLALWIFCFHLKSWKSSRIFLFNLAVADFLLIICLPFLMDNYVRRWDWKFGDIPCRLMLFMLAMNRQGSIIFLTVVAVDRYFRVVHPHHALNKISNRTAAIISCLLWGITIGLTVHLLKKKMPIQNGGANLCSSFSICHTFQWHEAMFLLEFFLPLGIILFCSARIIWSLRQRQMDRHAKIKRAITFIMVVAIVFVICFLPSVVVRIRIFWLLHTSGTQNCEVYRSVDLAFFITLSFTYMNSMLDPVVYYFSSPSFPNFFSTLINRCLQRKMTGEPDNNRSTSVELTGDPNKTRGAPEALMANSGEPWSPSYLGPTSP

Compound	decrease in MCP-1 mRNA [2] [%]	decrease in TNF-α mRNA [3] [%]	Emax ([4]; Flp-In-293, mean ± SD) [%]	EC50 [4, 13] [nM]	EC50 [4, 14] [nM]	El.ox. pot. (first, lower potential) [5] [V]	El.ox. pot. (second, higher potential) [5] [V]	LPS-stimulated FFA3/GPR41 mRNA level [6]	logP [8]	decrease in IL-6 mRNA [9] [%]	LPS-stimulated HCA2/GPR109A mRNA level [11]	also measured
4-i-butylhexahydroquinoline methyl ester [compound 28]												activity in the cAMP assay (in words) [1]: no activity
CC1=C(C(=O)Nc2ccccc2C)C(c2cccs2)C2=C(CCCC2=O)N1 (stereo not drawn) [1-1]	53 ± 5	59 ± 10	96	1790 ± 300	640 ± 200	1.19	1.64	significantly increased	2.65	67 ± 1		activity towards FFA2/GPR43 (in words) ([7]; cAMP assay): lacked activity
CC1=C(C(=O)Nc2ccccc2C)C(c2ccco2)C2=C(CCCC2=O)N1 (stereo not drawn) [1-2]	67 ± 10	64 ± 13	93	610 ± 90	580 ± 30	1.19	1.99	significantly increased	2.18	74 ± 1		
CC1=C(C(=O)Nc2cc(Cl)ccc2Cl)C(c2ccco2)C2=C(CCCC2=O)N1 (stereo not drawn) [1-3]			99	320 ± 50	100 ± 20				2.90			
CC1=C(C(=O)Nc2ccc(Cl)cc2Cl)C(c2ccco2)C2=C(CCCC2=O)N1 (stereo not drawn) [1-4, N-(2,4-Dichlorophenyl)-4-(furan-2-yl)-2-methyl-5-oxo-1,4,5,6,7,8-hexahydroquinoline-3-carboxamide]	37 ± 6	50 ± 2	86	230 ± 70	81 ± 40	1.24	1.67			64 ± 5		
O=c1[nH]c(=O)c2c(CCCCCl)cc(=O)oc2[nH]1 [2-7, 5-(4-Chlorobutyl)-1H-pyrano[2,3-d]pyrimidine-2,4,7-trione]	50 ± 5	48 ± 11	89	220 ± 30				significantly increased		74 ± 3	significantly reduced	El.ox. pot. (single value) [5]: 1.94 V; Emax ([10]; HCA2): 98%; EC50 [10]: 54 ± 6 nM; Emax ([7]; Flp-In-293, mean ± SD, read-out: FFA2/GPR43 Emax, maximal inhibition of forskolin-stimulated cAMP (converted)): 88%; EC50 ([7]; inhibition of forskolin-stimulated cAMP, mean ± SD): 380 ± 60 nM
O=C(CSc1nc(=O)c2c(CCCCCl)cc(=O)oc2[nH]1)OCc1ccccc1 [3-3]	49 ± 5	53 ± 9						significantly increased		65 ± 2	significantly reduced	inhibition at 50 µM ([4]; Flp-In-293, 50 µM compound, NA = not active up to 50 µM): 72 ± 2%; Emax ([10]; HCA2): 85%; EC50 [10]: 17000 ± 3000 nM; inhibition at 50 µM ([7]; Flp-In-293): 66 ± 6%
CC(Sc1nc(=O)c2c(CCCCCl)cc(=O)oc2[nH]1)C(=O)c1ccc(OCc2ccccc2)cc1 (stereo not drawn) [3-4, 2-[2-(4-Benzyloxy-phenyl)-1-methyl-2-oxo-ethylsulfanyl]-5-(4-chlorobutyl)-1H-pyrano[2,3-d]pyrimidine-4,7-dione]	41 ± 1	58 ± 10	95	380 ± 100						61 ± 1	significantly reduced	El.ox. pot. (single value) [5]: 1.98 V; inhibition at 50 µM ([10]; HCA2, 50 µM compound, NA = not active up to 50 µM): 33 ± 16%; inhibition at 50 µM ([7]; Flp-In-293): 49 ± 2%
O=C(O)c1cccnc1 [niacin, reference compound]												downregulation of LPS-induced MCP-1 mRNA ([2]; niacin 50 µM): 29 ± 1%; downregulation of LPS-induced TNF-α mRNA ([3]; niacin 50 µM): 32 ± 3%; LPS-stimulated FFA3/GPR41 gene expression ([6]; niacin 50 µM): did not affect; LPS-stimulated FFA2/GPR43 gene expression ([12]; niacin 50 µM): did not affect
CCC(=O)O [propionate, reference compound]												downregulation of LPS-induced MCP-1 mRNA ([2]; propionate 1 mM): 33 ± 2%; downregulation of LPS-induced TNF-α mRNA ([3]; propionate 1 mM): 42 ± 4%; LPS-upregulated FFA2/GPR43 gene expression ([12]; propionate 1 mM, not statistically significant (p > 0.05)): slightly increased; downregulation of LPS-induced IL-6 mRNA ([9]; propionate 1 mM): 66 ± 5%
